Values of other authors as cited in PubChem BioAssay AID1259409 (Chemical Carcinogenesis Research Information System (CCRIS), 2018).

Tested on: rodent chemically induced tumor inhibition, incidence and multiplicity
Assay: CCRIS tumor inhibitor studies

NCCS
tumour outcome (control, treated, inhibition, significance) (Carcinogen: N-METHYL-N'-NITRO-N-NITROSOGUANIDINE, 70-25-7, Dose [Inhibitor]: 0, 25 MG/KG IN 0.9% SALINE PLUS 2 MG/KG PROPANOLOL IN OLIVE OIL 1/2 D BEGINNING 1 WK POST LAST CARCINOGEN DOSE AND CONTI, Route [Inhibitor]: SUBCUTANEOUS, Species: RAT, Strain/Sex: WISTAR/MALE, Target Tissue: Type of Lesion: STOMACH: ADENOCARCINOMA, Dose [Carcinogen]: 100 UG/ML IN DRINKING WATER FOR 25 WK, Promoter: NONE USED): 16/20 (80%), 2/22 (9%), 89%, p<0.001 | tumour outcome (control, treated, inhibition, significance) (Carcinogen: N-METHYL-N'-NITRO-N-NITROSOGUANIDINE, 70-25-7, Dose [Inhibitor]: 0, 25 MG/KG IN 0.9% SALINE PLUS 50 MG/KG CIMETIDINE IN OLIVE OIL 1/2 D BEGINNING 1 WK POST LAST CARCINOGEN DOSE AND CONT, Route [Inhibitor]: SUBCUTANEOUS, Species: RAT, Strain/Sex: WISTAR/MALE, Target Tissue: Type of Lesion: STOMACH: ADENOCARCINOMA, Dose [Carcinogen]: 100 UG/ML IN DRINKING WATER FOR 25 WK, Promoter: NONE USED): 16/20 (80%), 12/21 (57%), 29%, not significant | tumour outcome (control, treated, inhibition, significance) (Carcinogen: N-METHYL-N'-NITRO-N-NITROSOGUANIDINE, 70-25-7, Dose [Inhibitor]: 0, 25 MG/KG IN 1 ML/KG OLIVE OIL 1/2 D FOR STUDY DURATION BEGINNING POST CARCINOGEN TREATMENT (STUDY DURATION: 52 WK), Route [Inhibitor]: SUBCUTANEOUS, Species: RAT, Strain/Sex: WISTAR/MALE, Target Tissue: Type of Lesion: GLANDULAR STOMACH: ADENOCARCINOMA, Dose [Carcinogen]: 50 UG/ML DRINKING WATER FOR 25 WK): 13/18 (72%), 6/20 (30%), 58%, p<0.05 | tumour outcome (control, treated, inhibition, significance) (Carcinogen: N-METHYL-N'-NITRO-N-NITROSOGUANIDINE, 70-25-7, Dose [Inhibitor]: 0, 50 MG/KG IN 0.9% SALINE 1/2 D BEGINNING POST CARCINOGEN DOSE AND CONTINUING FOR DURATION OF STUDY (STUDY DURATION: 52, Route [Inhibitor]: SUBCUTANEOUS, Species: RAT, Strain/Sex: WISTAR/MALE, Target Tissue: Type of Lesion: STOMACH: ADENOCARCINOMA, Dose [Carcinogen]: 50 UG/ML DRINKING WATER FOR 25 WK, Promoter: NONE USED): 12/19 (63%), 5/20 (25%), 58%, p<0.05 | tumour outcome (control, treated, inhibition, significance) (Carcinogen: N-METHYL-N'-NITRO-N-NITROSOGUANIDINE, 70-25-7, Dose [Inhibitor]: 0, 280 MG/KG 1/2 D FOR STUDY DURATION (STUDY DURATION: 52 WK), Route [Inhibitor]: SUBCUTANEOUS, Species: RAT, Strain/Sex: WISTAR/MALE, Target Tissue: Type of Lesion: STOMACH: ADENOCARCINOMA, Dose [Carcinogen]: 50 UG/ML DRINKING WATER FOR 25 WK, Promoter: NONE USED): 75%, 18%, 76%, p<0.01 | tumour outcome (control, treated, inhibition, significance) (Carcinogen: N-METHYL-N'-NITRO-N-NITROSOGUANIDINE, 70-25-7, Dose [Inhibitor]: 0.4% IN DIET FOR 26 WK GIVEN POST CARCINOGEN (STUDY DURATION: 52 WK), Route [Inhibitor]: ORAL, Species: RAT, Strain/Sex: WISTAR/MALE, Target Tissue: Type of Lesion: STOMACH: ADENOCARCINOMA, Dose [Carcinogen]: 50 UG/ML DRINKING WATER FOR 25 WK, Promoter: NONE USED): 16/20 (80%), 9/20 (45%), 44%, p<0.05 | tumour outcome (control, treated, inhibition, significance) (Carcinogen: TRANS-5-AMINO-3-[2-(5-NITRO-2-FURYL)VINYL]-1,2,4-OXADIAZOLE;SQL8506, 28754-68-9, Carcinogen: TRANS-5-AMINO-3-[2-(5-NITRO-2-FURYL)VINYL]-1,2,4-OXADIAZOLE;SQL8506, 28754-68-9, Dose [Inhibitor]: 210 MG/KG 16 HR BEFORE THE 1ST CARCINOGEN DOSE FOLLOWED BY IP INJECTIONS (210 MG/KG) IMMEDIATELY BEFORE EACH DOSE OF CAR, Route [Inhibitor]: INTRAMUSCULAR/INTRAPERITONEAL, Species: MOUSE, Strain/Sex: CD-1/FEMALE, Target Tissue: Type of Lesion: HEMATOPOIETIC: MYELOID LEUKEMIA, Dose [Carcinogen]: 1 G/KG 2/D FOR 5 D EVERY 4 WK FOR 3 COURSES TREATMENT, Promoter: NONE USED): 7/137 (5%), 0/28 (0%), 100%, not calculated | tumour outcome (control, treated, inhibition, significance) (Carcinogen: TRANS-5-AMINO-3-[2-(5-NITRO-2-FURYL)VINYL]-1,2,4-OXADIAZOLE;SQL8506, 28754-68-9, Carcinogen: TRANS-5-AMINO-3-[2-(5-NITRO-2-FURYL)VINYL]-1,2,4-OXADIAZOLE;SQL8506, 28754-68-9, Dose [Inhibitor]: 210 MG/KG 16 HR BEFORE THE 1ST CARCINOGEN DOSE FOLLOWED BY IP INJECTIONS (210 MG/KG) IMMEDIATELY BEFORE EACH DOSE OF CAR, Route [Inhibitor]: INTRAMUSCULAR/INTRAPERITONEAL, Species: MOUSE, Strain/Sex: CD-1/FEMALE, Target Tissue: Type of Lesion: LYMPHOID TISSUE: NONTHYMIC LYMPHOMA, Dose [Carcinogen]: 1 G/KG 2/D FOR 5 D EVERY 4 WK FOR 3 COURSES OF TREATMENT, Promoter: NONE USED): 8/137 (6%), 0/28 (0%), 100%, not calculated | tumour outcome (control, treated, inhibition, significance) (Carcinogen: TRANS-5-AMINO-3-[2-(5-NITRO-2-FURYL)VINYL]-1,2,4-OXADIAZOLE;SQL8506, 28754-68-9, Carcinogen: TRANS-5-AMINO-3-[2-(5-NITRO-2-FURYL)VINYL]-1,2,4-OXADIAZOLE;SQL8506, 28754-68-9, Dose [Inhibitor]: 210 MG/KG 16 HR BEFORE THE 1ST CARCINOGEN DOSE FOLLOWED BY IP INJECTIONS (210 MG/KG) IMMEDIATELY BEFORE EACH DOSE OF CAR, Route [Inhibitor]: INTRAMUSCULAR/INTRAPERITONEAL, Species: MOUSE, Strain/Sex: CD-1/FEMALE, Target Tissue: Type of Lesion: LYMPHOID TISSUE: THYMIC LYMPHOMA, Dose [Carcinogen]: 1 G/KG 2/D FOR 5 D EVERY 4 WK FOR 3 COURSES OF TREATMENT, Promoter: NONE USED): 22/137 (16%), 1/28 (4%), 75%, not calculated | tumour outcome (control, treated, inhibition, significance) (Carcinogen: TRANS-5-AMINO-3-[2-(5-NITRO-2-FURYL)VINYL]-1,2,4-OXADIAZOLE;SQL8506, 28754-68-9, Carcinogen: TRANS-5-AMINO-3-[2-(5-NITRO-2-FURYL)VINYL]-1,2,4-OXADIAZOLE;SQL8506, 28754-68-9, Dose [Inhibitor]: 210 MG/KG 16 HR BEFORE THE 1ST CARCINOGEN DOSE FOLLOWED BY IP INJECTIONS (210 MG/KG) IMMEDIATELY BEFORE EACH DOSE OF CAR, Route [Inhibitor]: INTRAMUSCULAR/INTRAPERITONEAL, Species: MOUSE, Strain/Sex: CD-1/FEMALE, Target Tissue: Type of Lesion: STOMACH: SQUAMOUS CARCINOMA, Dose [Carcinogen]: 1 G/KG 2/D FOR 5 D EVERY 4 WK FOR 3 COURSES OF TREATMENT, Promoter: NONE USED): 60/137 (44%), 13/28 (46%), -4%, not calculated
